Patent US4568490A, “Aminopropylaminobleomycin derivatives and process for preparation thereof” (Zaidan Hojin Biseibutsu Kagaku Kenkyu Kai, priority 1981, dated 1986)

Experiments:
ICR strain mice = assay: Pulmonary toxicity (pulmonary fibrosis) in mice, intraperitoneal injection; assay type: in vivo; conditions: 5 mg/kg i.p. once a day for 10 days; for Grade of pulmonary fibrosis, % / Incidence of pulmonary fibrosis, % / Incidence: number of mice suffering from pulmonary fibrosis / Grade: total score of pulmonary fibrosis/total number of test animal: autopsy after 5 weeks; for Incidence: number of mice suffering from pulmonary fibrosis: affected/total mice; for Grade: total score of pulmonary fibrosis/total number of test animal: score 0-6 points; for Grade of pulmonary fibrosis, Ratio / Incidence of pulmonary fibrosis, Ratio: reference of the ratio not stated
Summary of the method: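 Male ICR mice, 15 weeks old, 9 per group, received 5 mg/kg intraperitoneally once daily for 10 days. They were autopsied after 5 weeks' observation for pulmonary fibrosis incidence and grade: 1, alveolar exudate/septal fibrosis-like change; 2, fibrosis in several areas; 4, scattered fibrosis; 6, fibrosis over >2/3 of area.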

Hela S3 cells [1] = conditions: background statement; cited from earlier work
Hela S3 cells [2] = assay: Growth inhibitory activity against Hela S3 cells; assay type: cell-based; conditions: Cu-free form; Hela S3, 3 days incubation with compound
Protocol: The percentage growth inhibition was calculated using the equation: […] wherein A is the ultimate number of cells on the third day from the addition of a test sample, B is the ultimate number of cells in the control (without the addition of test sample), and C is the number of cells on the day of addition of the test sample.

Bacillus subtilis = assay: Antimicrobial activity, agar plate-cylinder method; assay type: cell-based; conditions: Cu-free form; bleomycin A2 (Cu-free form) standard assumed 1,000 mcg/mg
Protocol: (1) Antimicrobial activity against Mycobacterium smegmatis ATCC 697 and Bacillus subtilis.
(§1) The activity was assayed against the above test microorganisms by the method of agar plate-cylinder, assuming the potency of bleomycin A2 (Cu-free form), used as standard, to be 1,000 mcg/mg.

[3] = system: CDF1 /SLC strain male mice; assay: Acute toxicity, LD50 on 10 consecutive days; assay type: in vivo; conditions: subcutaneous, Behrens-Karber method
Protocol: LD50 was assayed by administering several representative compounds of this invention for 10 consecutive days.
CDF1 /SLC strain male mice (each 6 weeks old, 7 members per group) were subcutaneously administered with various compounds of this invention, the dose being different with each compound. LD50 (daily dose) was estimated from the mortality during the administration period by the Behrens-Karber method.

[4] = system: Lymphocytic leukemia P-388; assay: In vivo antitumor activity, murine lymphocytic leukemia P-388; conditions: BDF1-SLC mice, i.p. transplant, once daily for 9 days, 30 days observation; T/C more than 130 effective
Protocol: The following data with respect to the testing of a group of the presently claimed substances in vivo according to a standard test method involving murine lymphocytic leukemia P-388 is presented to lend further assurance as to the utility of the compounds as inhibitors of mammalian tumors.
Lymphocytic leukemia P-388 cells (1×10^5 /0.2 ml) were transplanted intraperitoneally into male BDF1 -SLC mice (5 mice/group). Each of the compounds of this invention was diluted with physiological saline to various concentrations. Each dilution was administered at a dose of 0.1 ml/10 g of body weight once daily for 9 days, starting on the day after the day of the transplantation. The mice of the control group were administered physiological saline.
The average number of days that the group receiving the compound of this invention survived was calculated. The figure obtained was divided by the average number of survival days for the control group, and was multiplied by 100 (T/C (%)).
T/C value more than 130 was considered to be effective.

[5] = system: Mycobacterium smegmatis ATCC 607; assay: Antimicrobial activity, agar plate-cylinder method; assay type: cell-based; conditions: Cu-free form; bleomycin A2 (Cu-free form) standard assumed 1,000 mcg/mg
Protocol: as §1

ICR mice = assay: Pulmonary toxicity (pulmonary fibrosis) in mice, intratracheal instillation; assay type: in vivo; conditions: 16 μg/50 μl/mouse intratracheally, sacrificed 4 weeks after instillation

Cc1c(N)nc(C(CC(N)=O)NCC(N)C(N)=O)nc1C(=O)NC(C(=O)NC(C)C(O)C(C)C(=O)NC(C(=O)NCCc1nc(-c2nc(C(=O)NCCCN(C)CCCN)cs2)cs1)C(C)O)C(OC1OC(CO)C(O)C(O)C1OC1OC(CO)C(O)C(OC(N)=O)C1O)c1cnc[nH]1 (centres unmarked) [APMP, 3-[N-(3-aminopropyl)-N-methylamino]propylaminobleomycin, reference compound]
Grade of pulmonary fibrosis, % (ICR strain mice): 0%
Incidence of pulmonary fibrosis, % (ICR strain mice): 100%
Incidence: number of mice suffering from pulmonary fibrosis (ICR strain mice): 9/9
Grade: total score of pulmonary fibrosis/total number of test animal (ICR strain mice): 48/27
Grade of pulmonary fibrosis, Ratio (ICR strain mice): 2.15
Incidence of pulmonary fibrosis, Ratio (ICR strain mice): 1.6
Growth inhibition of Hela Cell (in words) (Hela S3 cells [1]): strongly inhibits

Cc1c(N)nc(C(CC(N)=O)NCC(N)C(N)=O)nc1C(=O)NC(C(=O)NC(C)C(O)C(C)C(=O)NC(C(=O)NCCc1nc(-c2nc(C(=O)NCCCN(C)CCCNCC3CCCCCCCCCC3)cs2)cs1)C(C)O)C(OC1OC(CO)C(O)C(O)C1OC1OC(CO)C(O)C(OC(N)=O)C1O)c1cnc[nH]1 (centres unmarked) [Compound No. 32, 3-{N--Methyl-N--[3'-(cycloundecanylmethylamino)propyl]amino}propylaminoBLM]
50% growth inhibition concentration (ID50) of Cu--free compound against cultured Hela cell (Hela S3 cells [2]): 0.58 µg/mL
Grade of pulmonary fibrosis, % (ICR strain mice): 0%
Incidence of pulmonary fibrosis, % (ICR strain mice): 0%
Incidence: number of mice suffering from pulmonary fibrosis (ICR strain mice): 0/9
Grade: total score of pulmonary fibrosis/total number of test animal (ICR strain mice): 0/27
Grade of pulmonary fibrosis, Ratio (ICR strain mice): 0.00
Incidence of pulmonary fibrosis, Ratio (ICR strain mice): 0.00
Antimicrobial potency of Cu--free compound, against Bacillus subtilis (Bacillus subtilis): 8146 mcg potency per mg
LD50 (daily dose) [3]: 17.5 mg/kg/day
Max. T/C on Mouse Lymphocytic Leukemia P 388 [4]: 166%
Antimicrobial potency of Cu--free compound, against Mycobacterium smegmatis ATCC 607 [5]: 28308 mcg potency per mg

Cc1c(N)nc(C(CC(N)=O)NCC(N)C(N)=O)nc1C(=O)NC(C(=O)NC(C)C(O)C(C)C(=O)NC(C(=O)NCCc1nc(-c2nc(C(=O)NCCCN(C)CCCN(Cc3ccc(OCc4ccccc4)c(OCc4ccccc4)c3)Cc3ccc(OCc4ccccc4)c(OCc4ccccc4)c3)cs2)cs1)C(C)O)C(OC1OC(CO)C(O)C(O)C1OC1OC(CO)C(O)C(OC(N)=O)C1O)c1cnc[nH]1 (centres unmarked) [Compound No. 34, 3-{N--Methyl-N--[3'-(bis(m,p-dibenzyloxybenzyl)amino)propyl]amino}propylaminoBLM]
50% growth inhibition concentration (ID50) of Cu--free compound against cultured Hela cell (Hela S3 cells [2]): 0.38 µg/mL
Grade of pulmonary fibrosis, % (ICR strain mice): 0%
Incidence of pulmonary fibrosis, % (ICR strain mice): 0%
Incidence: number of mice suffering from pulmonary fibrosis (ICR strain mice): 0/9
Grade: total score of pulmonary fibrosis/total number of test animal (ICR strain mice): 0/27
Grade of pulmonary fibrosis, Ratio (ICR strain mice): 0.00
Incidence of pulmonary fibrosis, Ratio (ICR strain mice): 0.00
Antimicrobial potency of Cu--free compound, against Bacillus subtilis (Bacillus subtilis): 49 mcg potency per mg
LD50 (daily dose) [3]: 60.0 mg/kg/day
Max. T/C on Mouse Lymphocytic Leukemia P 388 [4]: 205%
Antimicrobial potency of Cu--free compound, against Mycobacterium smegmatis ATCC 607 [5]: 164 mcg potency per mg

CC[N+](CC)(CCCNC(=O)c1csc(-c2csc(CCNC(=O)C(NC(=O)C(C)C(O)C(C)NC(=O)C(NC(=O)c3nc(C(CC(N)=O)NCC(N)C(N)=O)nc(N)c3C)C(OC3OC(CO)C(O)C(O)C3OC3OC(CO)C(O)C(OC(N)=O)C3O)c3cnc[nH]3)C(C)O)n2)n1)CCCN(Cc1ccccc1)Cc1ccccc1 (centres unmarked) [Compound No. 37, 3-[N,N-diethyl-N-(3'-dibenzylamino)propyl]aminopropylaminobleomycin]
50% growth inhibition concentration (ID50) of Cu--free compound against cultured Hela cell (Hela S3 cells [2]): 0.70 µg/mL
Antimicrobial potency of Cu--free compound, against Bacillus subtilis (Bacillus subtilis): 1047 mcg potency per mg
LD50 (daily dose) [3]: 50.0 mg/kg/day
Max. T/C on Mouse Lymphocytic Leukemia P 388 [4]: 168%
Antimicrobial potency of Cu--free compound, against Mycobacterium smegmatis ATCC 607 [5]: 10680 mcg potency per mg

Cc1c(N)nc(C(CC(N)=O)NCC(N)C(N)=O)nc1C(=O)NC(C(=O)NC(C)C(O)C(C)C(=O)NC(C(=O)NCCc1nc(-c2nc(C(=O)NCCCN3CCN(CCCN(Cc4ccccc4)Cc4ccccc4)CC3)cs2)cs1)C(C)O)C(OC1OC(CO)C(O)C(O)C1OC1OC(CO)C(O)C(OC(N)=O)C1O)c1cnc[nH]1 (centres unmarked) [Compound No. 43]
50% growth inhibition concentration (ID50) of Cu--free compound against cultured Hela cell (Hela S3 cells [2]): 0.50 µg/mL
Grade of pulmonary fibrosis, % (ICR strain mice): 0%
Incidence of pulmonary fibrosis, % (ICR strain mice): 0%
Incidence: number of mice suffering from pulmonary fibrosis (ICR strain mice): 0/9
Grade: total score of pulmonary fibrosis/total number of test animal (ICR strain mice): 0/27
Grade of pulmonary fibrosis, Ratio (ICR strain mice): 0.00
Incidence of pulmonary fibrosis, Ratio (ICR strain mice): 0.00
Antimicrobial potency of Cu--free compound, against Bacillus subtilis (Bacillus subtilis): 1230 mcg potency per mg
LD50 (daily dose) [3]: 12.5 mg/kg/day
Max. T/C on Mouse Lymphocytic Leukemia P 388 [4]: 182%
Antimicrobial potency of Cu--free compound, against Mycobacterium smegmatis ATCC 607 [5]: 14420 mcg potency per mg

Cc1c(N)nc(C(CC(N)=O)NCC(N)C(N)=O)nc1C(=O)NC(C(=O)NC(C)C(O)C(C)C(=O)NC(C(=O)NCCc1nc(-c2nc(C(=O)NCCC[N+](C)(CCCN(Cc3ccccc3)Cc3ccccc3)Cc3ccccc3)cs2)cs1)C(C)O)C(OC1OC(CO)C(O)C(O)C1OC1OC(CO)C(O)C(OC(N)=O)C1O)c1cnc[nH]1 (centres unmarked) [compound 39, 3-{N--Methyl-N--benzyl-N--[3'-(dibenzylamino)propyl]amino}propylaminoBLM]
50% growth inhibition concentration (ID50) of Cu--free compound against cultured Hela cell (Hela S3 cells [2]): 2.30 µg/mL
Grade of pulmonary fibrosis, % (ICR strain mice): 0%
Incidence of pulmonary fibrosis, % (ICR strain mice): 0%
Incidence: number of mice suffering from pulmonary fibrosis (ICR strain mice): 0/9
Grade: total score of pulmonary fibrosis/total number of test animal (ICR strain mice): 0/27
Grade of pulmonary fibrosis, Ratio (ICR strain mice): 0.00
Incidence of pulmonary fibrosis, Ratio (ICR strain mice): 0.00
Antimicrobial potency of Cu--free compound, against Bacillus subtilis (Bacillus subtilis): 580 mcg potency per mg
Max. T/C on Mouse Lymphocytic Leukemia P 388 [4]: 163%
Antimicrobial potency of Cu--free compound, against Mycobacterium smegmatis ATCC 607 [5]: 7746 mcg potency per mg
Grade of pulmonary fibrosis, % (ICR mice): 15%
Incidence of pulmonary fibrosis, % (ICR mice): 22%
Incidence: number of mice with pulmonary fibrosis/number of mice (ICR mice): 2/9
Grade: total score of pulmonary fibrosis/total number of samples (ICR mice; score 0-6 points): 4/27
